Data from paper PMC6277767, “Broad and Region-Specific Impacts of the Synthetic Cannabinoid CP 55,940 in Adolescent and Adult Female Mouse Brains” (Frontiers in Molecular Neuroscience, 2018).

Test system: CD1 female mouse brain lipidome
Experiment: Brain-region lipid levels (HPLC/MS/MS lipidomics) 2 h after single i.p. 3 mg/kg CP 55,940 vs vehicle
Type: in vivo
Set-up: N-arachidonoyl phenylalanine level, Mean / N-stearoyl tryptophan level, Mean / N-stearoyl proline level, Mean / N-stearoyl leucine level, Mean / N-stearoyl phenylalanine level, Mean / N-stearoyl serine level, Mean / N-stearoyl methionine level, Mean: unit: moles per gram
Details: hippocampus, adult, 3 mg/kg CP 55,940
Description: The Bloomington Institutional Animal Care and Use Committee of Indiana University reviewed and approved the animal procedures. Female mice from the CD1 strain were utilized to match our study examining THC’s effects on the brain lipidome ([Leishman et al., 2018]). Mice were given a single i.p. injection of either 3 mg/kg CP or 1:1:18 cremophor:ethanol:saline vehicle (please refer to the section “3 mg/kg CP Is Relevant for Synthetic Cannabinoid Abuse and Has Stronger Effects on the Female Mouse Brain Lipidome During Adolescence” for a justification of dose and use of female mice). Three different age groups were given injections: PND 35 and PND 50 adolescents, and adult mice (PND 113). At least eight mice in each age group received CP and at least eight received vehicle. Matching the THC study time course ([Leishman et al., 2018]), mice were sacrificed via rapid decapitation 2 h after injection. Brains were immediately removed and flash-frozen in liquid nitrogen, and then stored at -80°C until dissections were performed. Brains were dissected on an ice-cold dissection plate into the following regions: STR, HIPP, CER, THAL, CTX, HYP, MID, and STEM. These abbreviations for these brain areas will be used exclusively when discussing the results generated by these specific dissections. Each dissected area was immediately placed in liquid nitrogen and then stored at -80°C until used for lipid extraction.
Tissue extracts were performed as previously described ([Bradshaw et al., 2006]; [Stuart et al., 2013]; [Raboune et al., 2014]; [Leishman et al., 2016a],[b], [2017], [2018]). First, samples were shock frozen in liquid nitrogen, weighed, and transferred to a centrifuge tube. The mass of the largest sample was multiplied by 50 to determine how many milliliters of HPLC-grade methanol (Fisher, Fair Lawn, NJ, United States) to add. Then, samples were spiked with 500 pmol deuterium-labeled NAGly (d8NAGly; Cayman Chemical, Ann Arbor, MI, United States). Samples were placed on ice in darkness for 2 h then individually homogenized and centrifuged at 19,000 × g for 20 min at 20°C. Supernatants were diluted with HPLC water (purified in house) to make a solution of 75% water, 25% supernatant. Lipids were partially purified on C18 solid phase extraction columns (Agilent, Palo Alto, CA, United States). A series of four elutions with 1.5 mL of 60%, 75%, 85%, and 100% methanol were collected ([Stuart et al., 2013]; [Leishman et al., 2016a],[b], [2018]).
As previously described ([Bradshaw et al., 2006]; [Tan et al., 2006]; [Smoum et al., 2010]; [Stuart et al., 2013]; [Tortoriello et al., 2013]; [Raboune et al., 2014]; [Leishman et al., 2016a],[b], [2017], [2018]), samples were analyzed using an Applied Biosystems API 3000 triple quadrupole mass spectrometer with electrospray ionization (Foster City, CA, United States). Using an Agilent XDB-C18 reversed phase analytical column and optimized mobile phase gradients, 20 μL from each elution were chromatographed. Two Shimadzu 10ADvp pumps (Columbia, MD, United States) provided the pressure for gradient elution. Mobile phase A: 20% methanol, 80% water (v/v) and 1 mM ammonium acetate (Sigma, St. Louis, MO, United States). Mobile phase B: 100% methanol, 1 mM ammonium acetate. Every method run began with 0% mobile phase B, reached 100% mobile phase B flowing at 0.2 mL/min, and gradually returned to 0% mobile phase B.
This screening library will be referred to as the lipidome when discussing data from this study. HPLC/MS/MS data were analyzed using Analyst software (Applied Biosystems) ([Bradshaw et al., 2006]; [Tan et al., 2006]; [Stuart et al., 2013]; [Tortoriello et al., 2013]; [Raboune et al., 2014]; [Leishman et al., 2016a],[b], [2017], [2018]). Chromatograms (Supplementary Figure 3) were generated by determining the retention time of analytes from the analytical column with a [M-1] or [M+1] parent peak and a fragmentation peak corresponding to the programmed values. […]

CCCCCCC(C)(C)c1ccc([C@@H]2C[C@H](O)CC[C@H]2CCCO)c(O)c1 [CP 55,940] was tested, and the “6-ketoPGF1α level, Mean” value was 2.42E-11, the “11-OH-THC level, Mean” value was “BDL” and the “11-nor-9-carboxyTHC level, Mean” value was “BDL”. For the same compound, the “Arachidonic acid level, Mean” value was 1.89E-09, the “Cannabidiol level, Mean” value was “BDL” and the “Linoleic acid level, Mean” value was 7.37E-10. For the same compound, the “N- stearoyl valine level, Mean” value was 3.95E-14, the “N-arachidonoyl GABA level, Mean” value was 2.86E-11 and the “N-arachidonoyl GABA: Direction (relative to Veh)” value was “↓”. The “N-arachidonoyl GABA: Magnitude (x Veh level)” value was 0.84 x Veh level, the “N-arachidonoyl alanine level, Mean” value was 3.66E-12 and the “N-arachidonoyl alanine: Direction (relative to Veh)” value was “↓”. The “N-arachidonoyl alanine: Magnitude (x Veh level)” value was 0.76 x Veh level, the “N-arachidonoyl dopamine level, Mean” value was “BDL” and the “N-arachidonoyl ethanolamine level, Mean” value was 3.15E-11. The “N-arachidonoyl glycine level, Mean” value was 2.03E-12, the “N-arachidonoyl glycine: Direction (relative to Veh)” value was “↓” and the “N-arachidonoyl glycine: Magnitude (x Veh level)” value was 0.72 x Veh level. The “N-arachidonoyl methionine level, Mean” value was “PISSR”, the “N-arachidonoyl phenylalanine level, Mean” value was 1.12E-13 and the “N-arachidonoyl phenylalanine: Direction (relative to Veh)” value was “↓”. For the same compound, the “N-arachidonoyl phenylalanine: Magnitude (x Veh level)” value was 0.60 x Veh level, the “N-arachidonoyl proline level, Mean” value was “BDL” and the “N-arachidonoyl serine level, Mean” value was “PISSR”. For the same compound, the “N-arachidonoyl taurine level, Mean” value was 2.3E-10, the “N-arachidonoyl tryptophan level, Mean” value was “BDL” and the “N-arachidonoyl tyrosine level, Mean” value was “PISSR”. For the same compound, the “N-docosahexaenoyl GABA level, Mean” value was 7.15E-12, the “N-docosahexaenoyl GABA: Direction (relative to Veh)” value was “↓” and the “N-docosahexaenoyl GABA: Magnitude (x Veh level)” value was 0.84 x Veh level. For the same compound, the “N-docosahexaenoyl alanine level, Mean” value was “PISSR”, the “N-docosahexaenoyl ethanolamine level, Mean” value was 2.18E-11 and the “N-docosahexaenoyl glycine level, Mean” value was 1.21E-13. For the same compound, the “N-docosahexaenoyl leucine level, Mean” value was “PISSR”, the “N-docosahexaenoyl methionine level, Mean” value was “BDL” and the “N-docosahexaenoyl phenylalanine level, Mean” value was “PISSR”. The “N-docosahexaenoyl proline level, Mean” value was “BDL”, the “N-docosahexaenoyl serine level, Mean” value was “PISSR” and the “N-docosahexaenoyl tryptophan level, Mean” value was “BDL”. For the same compound, the “N-docosahexaenoyl tyrosine level, Mean” value was “PISSR”, the “N-docosahexaenoyl valine level, Mean” value was “PISSR” and the “N-linoleoyl GABA level, Mean” value was “PISSR”. The “N-linoleoyl alanine level, Mean” value was 3.37E-13, the “N-linoleoyl ethanolamine level, Mean” value was 2.58E-11 and the “N-linoleoyl glycine level, Mean” value was 1.16E-13. For the same compound, the “N-linoleoyl leucine level, Mean” value was “PISSR”, the “N-linoleoyl methionine level, Mean” value was “BDL” and the “N-linoleoyl phenylalanine level, Mean” value was “PISSR”. For the same compound, the “N-linoleoyl proline level, Mean” value was “BDL”, the “N-linoleoyl serine level, Mean” value was 7.17E-11 and the “N-linoleoyl tryptophan level, Mean” value was “BDL”. For the same compound, the “N-linoleoyl tyrosine level, Mean” value was “PISSR”, the “N-linoleoyl valine level, Mean” value was “PISSR” and the “N-nervonoyl valine level, Mean” value was “BDL”. The “N-oleoyl GABA level, Mean” value was 1.55E-11, the “N-oleoyl GABA: Direction (relative to Veh)” value was “↓” and the “N-oleoyl GABA: Magnitude (x Veh level)” value was 0.88 x Veh level. The “N-oleoyl alanine level, Mean” value was 3.73E-12, the “N-oleoyl dopamine level, Mean” value was “BDL” and the “N-oleoyl ethanolamine level, Mean” value was 1.06E-10. For the same compound, the “N-oleoyl glycine level, Mean” value was 5.21E-13, the “N-oleoyl leucine level, Mean” value was 1.44E-12 and the “N-oleoyl methionine level, Mean” value was “PISSR”. The “N-oleoyl phenylalanine level, Mean” value was 3.98E-13, the “N-oleoyl phenylalanine: Direction (relative to Veh)” value was “↓” and the “N-oleoyl phenylalanine: Magnitude (x Veh level)” value was 0.70 x Veh level. For the same compound, the “N-oleoyl proline level, Mean” value was “BDL”, the “N-oleoyl serine level, Mean” value was 3.49E-10 and the “N-oleoyl tryptophan level, Mean” value was “BDL”. The “N-oleoyl tyrosine level, Mean” value was 4.1E-13, the “N-oleoyl valine level, Mean” value was “PISSR” and the “N-palmitoyl GABA level, Mean” value was 2.14E-11. For the same compound, the “N-palmitoyl alanine level, Mean” value was 3.64E-12, the “N-palmitoyl ethanolamine level, Mean” value was 4.41E-11 and the “N-palmitoyl glycine level, Mean” value was 1.22E-12. The “N-palmitoyl leucine level, Mean” value was 2.6E-12, the “N-palmitoyl methionine level, Mean” value was 1.73E-12 and the “N-palmitoyl phenylalanine level, Mean” value was 4.39E-13. The “N-palmitoyl proline level, Mean” value was “BDL”, the “N-palmitoyl serine level, Mean” value was 1.33E-11 and the “N-palmitoyl tryptophan level, Mean” value was “BDL”. The “N-palmitoyl tyrosine level, Mean” value was 9.98E-13, the “N-palmitoyl valine level, Mean” value was 1.27E-13 and the “N-stearoyl GABA level, Mean” value was 1.57E-11. The “N-stearoyl alanine level, Mean” value was 2.38E-12, the “N-stearoyl ethanolamine level, Mean” value was 1.7E-11 and the “N-stearoyl glycine level, Mean” value was 2.12E-12. The “N-stearoyl leucine level, Mean” value was 2.18E-12, the “N-stearoyl phenylalanine level, Mean” value was 3.31E-13 and the “N-stearoyl proline level, Mean” value was “BDL”. For the same compound, the “N-stearoyl serine level, Mean” value was 2.78E-11, the “N-stearoyl serine: Direction (relative to Veh)” value was “↓” and the “N-stearoyl serine: Magnitude (x Veh level)” value was 0.85 x Veh level. The “N-stearoyl tryptophan level, Mean” value was “BDL”, the “N-stearoyl tyrosine level, Mean” value was 1.97E-13 and the “Oleic acid level, Mean” value was 1.43E-09. The “PGE2: Direction (relative to Veh)” value was “↑”, the “PGE2: Magnitude (x Veh level)” value was 1.18 x Veh level and the “PGE2 level, Mean” value was 3.37E-10. For the same compound, the “PGF2α: Direction (relative to Veh)” value was “↑”, the “PGF2α: Magnitude (x Veh level)” value was 1.30 x Veh level and the “PhosphoLEA level, Mean” value was 1.8E-11.
